One compound from patent US9598414B2, “Substituted benzo[5,6]azepino[3,2,1-hi]pyrido[4,3-b]indoles and substituted benzo[6,7][1,4]oxazepino[2,3,4-hi]pyrido[4,3-b]indoles for treating CNS disorders” (Daya Drug Discoveries, Inc., priority 2013, dated 2017) can be followed below.

SMILES strings stand for the structures.

Assay [1] has as its target Serotonin 5-HT3 (Homo sapiens, UniProt P46098). The assay can be described thus: Receptor binding, 5-HT3.
Assay [2] relates to rats with a history of chronic meth self-administration. The assay can be described thus: Reinstatement of meth seeking. Particulars: 10 mg/kg i.p. just before reinstatement session (meth priming 1 mg/kg i.p. and cues), FIG. 3. The assay is classed as in vivo. As to the method:
DDD-024 was initially tested for effects on the reinstatement of meth seeking in a small pilot group of rats with a history of chronic meth self-administration. […] Rats received a vehicle (10% DMSO) or DDD-024 (10 mg/kg) injection (i.p.) just before each reinstatement session, which consisted of a meth priming injection (1 mg/kg, i.p.) and presentation of meth-associated cues (tone and light) upon each lever press.

Assay [3] has as its target β-Adrenergic β2 (Homo sapiens, UniProt P07550). As to the kind of experiment: Receptor binding, β2.
For assay [4], the target named is T1, α-Adrenergic α2B (Homo sapiens, UniProt P18089).
T1 sequence (P18089 1-450): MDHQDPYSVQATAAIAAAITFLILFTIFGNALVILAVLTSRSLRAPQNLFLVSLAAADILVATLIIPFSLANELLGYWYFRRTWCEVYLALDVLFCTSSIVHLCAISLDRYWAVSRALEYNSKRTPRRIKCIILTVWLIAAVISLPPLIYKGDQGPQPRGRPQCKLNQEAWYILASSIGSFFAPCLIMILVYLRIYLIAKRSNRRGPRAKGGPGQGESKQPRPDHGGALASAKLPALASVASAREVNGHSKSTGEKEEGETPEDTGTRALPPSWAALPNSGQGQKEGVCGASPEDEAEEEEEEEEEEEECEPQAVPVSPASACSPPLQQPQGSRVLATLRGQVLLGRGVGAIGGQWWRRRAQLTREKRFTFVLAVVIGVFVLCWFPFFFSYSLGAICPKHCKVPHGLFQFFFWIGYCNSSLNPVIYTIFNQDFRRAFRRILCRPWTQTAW
As to the kind of experiment: Receptor binding, α2B.

Assay [5] deals with mice (129SV/PAS background). As to the kind of experiment: MDMA-induced motor behavior (locomotor activity). Type of assay: in vivo. Particulars: FIG. 4. The method, then:
In this in vivo study, locomotor activity was measured in a circular corridor with four infrared beams placed at every 90° (Imetronic, France). Counts were incremented by consecutive interruption of two adjacent beams (i.e. mice moving through one-quarter of the corridor). DDD-024 was tested in MDMA-induced motor behavior at 5, 10 and 20 mg/kg, ip, in mice (129SV/PAS background, 8 week old, Charles River Laboratories). The animals were injected with vehicle and individually placed in the activity box for 30 min during 3 days consecutively for habituation before experiments. Mice received vehicle or DDD-024 (5-20 mg/kg, i.p.) injection 30 min before MDMA injection (10 mg/kg).

In assay [6] the target is Serotonin 5-HT1E (Homo sapiens, UniProt P28566). The assay can be described thus: Receptor binding, 5-HT1E.
In assay [7] the target is T2, Serotonin 5-HT2C (Homo sapiens, UniProt P28335).
T2 sequence (P28335 33-458): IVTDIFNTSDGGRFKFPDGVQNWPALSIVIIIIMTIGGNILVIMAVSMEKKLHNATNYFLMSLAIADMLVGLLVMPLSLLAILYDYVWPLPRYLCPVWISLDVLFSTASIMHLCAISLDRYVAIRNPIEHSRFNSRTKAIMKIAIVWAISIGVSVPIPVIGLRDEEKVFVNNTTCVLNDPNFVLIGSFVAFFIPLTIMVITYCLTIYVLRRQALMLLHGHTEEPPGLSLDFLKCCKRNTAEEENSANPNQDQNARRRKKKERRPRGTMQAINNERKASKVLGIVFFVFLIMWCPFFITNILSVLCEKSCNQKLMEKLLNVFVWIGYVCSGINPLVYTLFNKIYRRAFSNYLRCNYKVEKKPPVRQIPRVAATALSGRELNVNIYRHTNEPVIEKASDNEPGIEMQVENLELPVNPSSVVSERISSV
The assay can be described thus: Receptor binding, 5-HT2C.

The target in assay [8] is Serotonin 5-HT6 (Homo sapiens, UniProt P50406). As to the kind of experiment: Receptor binding, 5-HT6.
Assay [9] concerns the target β-Adrenergic β3 (Homo sapiens, UniProt P13945). As to the kind of experiment: Receptor binding, β3.
The target of assay [10] is Sigma σ2 (Homo sapiens, UniProt Q5BJF2). As to the kind of experiment: Receptor binding, σ2.
Assay [11] has as its target T3, α-Adrenergic α2A (Homo sapiens, UniProt P08913).
T3 sequence (P08913 1-465): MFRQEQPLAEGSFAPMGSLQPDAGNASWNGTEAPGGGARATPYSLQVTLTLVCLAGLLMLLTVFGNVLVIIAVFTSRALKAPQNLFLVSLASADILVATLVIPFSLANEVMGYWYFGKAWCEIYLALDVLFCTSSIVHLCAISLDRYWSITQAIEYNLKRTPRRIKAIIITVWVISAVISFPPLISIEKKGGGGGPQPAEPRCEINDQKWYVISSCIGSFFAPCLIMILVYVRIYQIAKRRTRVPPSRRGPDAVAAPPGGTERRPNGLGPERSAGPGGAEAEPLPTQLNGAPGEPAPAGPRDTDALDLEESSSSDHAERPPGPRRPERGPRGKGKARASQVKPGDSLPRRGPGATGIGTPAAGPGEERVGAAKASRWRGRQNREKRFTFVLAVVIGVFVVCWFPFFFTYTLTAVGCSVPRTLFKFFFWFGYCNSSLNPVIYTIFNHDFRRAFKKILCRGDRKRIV
As to the kind of experiment: Receptor binding, α2A.

Assay [12] concerns the target Serotonin transporter (Homo sapiens, UniProt P31645). As to the kind of experiment: Receptor binding, serotonin transporter.
The target of assay [13] is Serotonin 5-HT5A (Homo sapiens, UniProt P47898). As to the kind of experiment: Receptor binding, 5-HT5A.
The target in assay [14] is Muscarinic M5 (Homo sapiens, UniProt P08912). The assay can be described thus: Receptor binding, M5.
Assay [15] addresses Dopamine D3 (Homo sapiens, UniProt P35462). The assay can be described thus: Receptor binding, D3.
The target in assay [16] is Muscarinic M1 (Homo sapiens, UniProt P11229). As to the kind of experiment: Receptor binding, M1.
Assay [17] has as its target α-Adrenergic α1A (Homo sapiens, UniProt P35348). The assay can be described thus: Receptor binding, α1A.
Assay [18] concerns the target α-Adrenergic α1B (Homo sapiens, UniProt P35368). The assay can be described thus: Receptor binding, α1B.

Sequence of Sigma σ2 (Q5BJF2 whole entry): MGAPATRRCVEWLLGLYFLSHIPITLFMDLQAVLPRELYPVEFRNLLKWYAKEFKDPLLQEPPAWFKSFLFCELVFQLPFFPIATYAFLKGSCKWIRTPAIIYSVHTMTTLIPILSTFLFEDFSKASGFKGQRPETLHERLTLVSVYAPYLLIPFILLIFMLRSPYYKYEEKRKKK
Sequence of Serotonin 5-HT6 (P50406 whole entry): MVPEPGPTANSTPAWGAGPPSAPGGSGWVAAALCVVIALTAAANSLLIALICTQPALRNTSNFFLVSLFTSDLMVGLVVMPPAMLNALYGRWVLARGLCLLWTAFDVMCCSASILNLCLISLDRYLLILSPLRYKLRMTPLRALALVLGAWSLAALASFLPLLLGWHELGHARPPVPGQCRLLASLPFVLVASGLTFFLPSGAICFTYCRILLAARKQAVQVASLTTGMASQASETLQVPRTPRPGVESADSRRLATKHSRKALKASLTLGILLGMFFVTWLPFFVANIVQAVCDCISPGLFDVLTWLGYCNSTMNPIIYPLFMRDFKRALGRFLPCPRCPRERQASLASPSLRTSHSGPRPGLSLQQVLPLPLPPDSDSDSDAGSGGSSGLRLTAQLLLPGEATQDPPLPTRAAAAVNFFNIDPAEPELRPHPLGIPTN
Sequence of Serotonin transporter (P31645 whole entry): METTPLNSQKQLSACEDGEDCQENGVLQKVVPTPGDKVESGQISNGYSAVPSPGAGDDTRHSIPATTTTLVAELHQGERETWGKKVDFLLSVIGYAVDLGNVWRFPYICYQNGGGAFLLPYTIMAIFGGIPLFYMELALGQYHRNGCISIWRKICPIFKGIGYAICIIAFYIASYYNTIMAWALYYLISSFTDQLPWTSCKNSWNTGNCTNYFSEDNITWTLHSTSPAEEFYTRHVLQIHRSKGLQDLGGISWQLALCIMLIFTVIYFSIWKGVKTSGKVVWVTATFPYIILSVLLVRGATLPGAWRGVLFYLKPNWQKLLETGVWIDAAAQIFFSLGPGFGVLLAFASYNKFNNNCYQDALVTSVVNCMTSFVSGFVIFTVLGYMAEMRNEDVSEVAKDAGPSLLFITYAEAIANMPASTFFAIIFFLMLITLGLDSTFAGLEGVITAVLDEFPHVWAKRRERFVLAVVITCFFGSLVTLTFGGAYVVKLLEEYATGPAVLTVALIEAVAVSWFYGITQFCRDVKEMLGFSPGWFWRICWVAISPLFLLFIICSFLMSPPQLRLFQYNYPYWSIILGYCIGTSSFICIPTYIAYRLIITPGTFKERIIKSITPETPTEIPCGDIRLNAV
Sequence of α-Adrenergic α1A (P35348 whole entry): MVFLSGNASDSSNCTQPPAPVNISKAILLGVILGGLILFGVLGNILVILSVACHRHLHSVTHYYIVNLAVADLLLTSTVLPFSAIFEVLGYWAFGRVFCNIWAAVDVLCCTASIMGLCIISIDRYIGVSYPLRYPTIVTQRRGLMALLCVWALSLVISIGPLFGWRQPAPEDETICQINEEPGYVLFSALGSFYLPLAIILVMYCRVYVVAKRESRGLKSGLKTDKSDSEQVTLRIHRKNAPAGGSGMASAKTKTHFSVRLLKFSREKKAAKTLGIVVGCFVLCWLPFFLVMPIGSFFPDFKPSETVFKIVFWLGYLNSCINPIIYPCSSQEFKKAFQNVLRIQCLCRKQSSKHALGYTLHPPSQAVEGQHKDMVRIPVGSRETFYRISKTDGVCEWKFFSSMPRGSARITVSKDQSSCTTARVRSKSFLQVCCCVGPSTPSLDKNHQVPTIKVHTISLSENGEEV
Sequence of α-Adrenergic α1B (P35368 whole entry): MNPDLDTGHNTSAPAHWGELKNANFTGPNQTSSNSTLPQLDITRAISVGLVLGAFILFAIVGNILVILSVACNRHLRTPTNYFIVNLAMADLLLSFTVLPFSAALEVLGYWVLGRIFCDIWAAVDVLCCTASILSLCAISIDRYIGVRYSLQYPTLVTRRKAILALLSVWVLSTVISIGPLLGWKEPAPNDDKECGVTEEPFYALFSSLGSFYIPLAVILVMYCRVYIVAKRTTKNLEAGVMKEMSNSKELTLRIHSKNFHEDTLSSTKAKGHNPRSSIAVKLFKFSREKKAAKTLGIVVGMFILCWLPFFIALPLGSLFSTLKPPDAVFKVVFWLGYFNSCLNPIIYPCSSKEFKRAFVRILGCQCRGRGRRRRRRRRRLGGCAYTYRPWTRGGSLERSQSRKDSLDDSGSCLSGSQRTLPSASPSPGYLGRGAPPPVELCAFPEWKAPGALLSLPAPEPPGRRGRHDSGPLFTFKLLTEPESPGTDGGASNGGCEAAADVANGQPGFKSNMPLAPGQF
Sequence of Serotonin 5-HT5A (P47898 whole entry): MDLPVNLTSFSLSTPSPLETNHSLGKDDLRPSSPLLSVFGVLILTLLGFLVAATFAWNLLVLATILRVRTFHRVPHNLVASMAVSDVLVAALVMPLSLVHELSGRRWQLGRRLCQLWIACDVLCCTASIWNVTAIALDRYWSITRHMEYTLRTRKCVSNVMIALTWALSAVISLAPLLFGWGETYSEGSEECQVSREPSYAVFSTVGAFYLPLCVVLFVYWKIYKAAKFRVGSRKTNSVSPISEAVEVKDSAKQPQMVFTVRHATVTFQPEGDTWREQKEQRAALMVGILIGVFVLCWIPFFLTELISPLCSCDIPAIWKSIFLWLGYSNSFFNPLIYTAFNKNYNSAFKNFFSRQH
Sequence of Muscarinic M1 (P11229 whole entry): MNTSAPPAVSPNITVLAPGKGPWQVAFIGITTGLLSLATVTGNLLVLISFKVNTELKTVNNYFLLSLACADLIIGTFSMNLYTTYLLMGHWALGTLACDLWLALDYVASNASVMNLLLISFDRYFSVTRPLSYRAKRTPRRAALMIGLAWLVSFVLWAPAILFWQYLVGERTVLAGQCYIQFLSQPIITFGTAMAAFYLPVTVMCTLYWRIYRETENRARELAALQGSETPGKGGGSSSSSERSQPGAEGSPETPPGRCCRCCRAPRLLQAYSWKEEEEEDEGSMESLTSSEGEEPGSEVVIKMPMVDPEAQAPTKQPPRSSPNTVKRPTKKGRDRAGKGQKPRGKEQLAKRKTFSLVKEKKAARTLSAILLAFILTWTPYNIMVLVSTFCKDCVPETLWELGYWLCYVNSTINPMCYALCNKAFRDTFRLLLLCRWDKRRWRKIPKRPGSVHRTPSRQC
Sequence of Dopamine D3 (P35462 whole entry): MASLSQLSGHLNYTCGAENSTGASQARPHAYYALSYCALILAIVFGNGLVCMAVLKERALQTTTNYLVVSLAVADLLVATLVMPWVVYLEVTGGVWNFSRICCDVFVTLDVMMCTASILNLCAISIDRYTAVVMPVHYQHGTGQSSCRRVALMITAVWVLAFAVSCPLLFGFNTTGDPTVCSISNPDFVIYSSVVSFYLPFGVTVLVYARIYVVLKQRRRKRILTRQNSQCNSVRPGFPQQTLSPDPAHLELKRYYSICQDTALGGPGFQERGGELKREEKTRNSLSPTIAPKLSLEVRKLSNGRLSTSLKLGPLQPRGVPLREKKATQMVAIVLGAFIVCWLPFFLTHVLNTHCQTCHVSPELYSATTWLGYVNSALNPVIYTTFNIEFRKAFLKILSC
Sequence of β-Adrenergic β2 (P07550 whole entry): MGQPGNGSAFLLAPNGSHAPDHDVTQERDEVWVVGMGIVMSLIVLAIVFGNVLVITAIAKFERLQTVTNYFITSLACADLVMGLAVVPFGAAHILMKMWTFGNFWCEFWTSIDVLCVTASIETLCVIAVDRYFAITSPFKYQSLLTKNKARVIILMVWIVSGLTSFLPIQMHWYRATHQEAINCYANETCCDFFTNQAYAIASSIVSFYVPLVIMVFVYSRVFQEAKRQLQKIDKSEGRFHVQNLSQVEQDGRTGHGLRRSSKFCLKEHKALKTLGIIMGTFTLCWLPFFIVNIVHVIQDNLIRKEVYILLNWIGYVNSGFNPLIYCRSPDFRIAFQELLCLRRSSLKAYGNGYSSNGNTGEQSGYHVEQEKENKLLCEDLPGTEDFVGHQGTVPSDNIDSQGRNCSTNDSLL
Sequence of β-Adrenergic β3 (P13945 whole entry): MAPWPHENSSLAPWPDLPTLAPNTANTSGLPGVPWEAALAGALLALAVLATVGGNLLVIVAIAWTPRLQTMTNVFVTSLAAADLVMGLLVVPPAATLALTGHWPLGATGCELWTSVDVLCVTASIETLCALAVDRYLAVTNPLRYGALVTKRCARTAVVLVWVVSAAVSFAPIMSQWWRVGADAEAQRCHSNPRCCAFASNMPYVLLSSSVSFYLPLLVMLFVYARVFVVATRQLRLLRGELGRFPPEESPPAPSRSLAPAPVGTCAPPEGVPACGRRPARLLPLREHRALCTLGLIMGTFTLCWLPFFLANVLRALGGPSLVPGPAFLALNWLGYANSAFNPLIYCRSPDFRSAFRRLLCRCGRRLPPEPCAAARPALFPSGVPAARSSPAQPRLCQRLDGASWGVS
Sequence of Serotonin 5-HT3 (P46098 24-478): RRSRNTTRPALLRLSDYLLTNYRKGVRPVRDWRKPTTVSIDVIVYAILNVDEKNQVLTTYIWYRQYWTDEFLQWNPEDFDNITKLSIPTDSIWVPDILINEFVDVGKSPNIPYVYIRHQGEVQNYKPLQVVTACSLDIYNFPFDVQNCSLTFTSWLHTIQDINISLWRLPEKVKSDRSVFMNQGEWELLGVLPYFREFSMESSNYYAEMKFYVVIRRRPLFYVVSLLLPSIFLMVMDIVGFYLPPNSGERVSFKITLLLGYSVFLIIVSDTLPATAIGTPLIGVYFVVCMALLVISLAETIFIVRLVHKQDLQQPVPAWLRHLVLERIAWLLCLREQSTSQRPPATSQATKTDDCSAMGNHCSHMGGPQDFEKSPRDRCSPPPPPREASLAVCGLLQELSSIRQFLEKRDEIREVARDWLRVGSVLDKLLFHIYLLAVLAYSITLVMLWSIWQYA

Regarding `CN1CCc2c(c3cccc4c3n2Cc2ccccc2O4)C1` [Compound 13b], the Ki in assay [1] was more than 10000 nM; in assay [3], more than 10000 nM; in [4] it was more than 10000 nM; in assay [6], more than 10000 nM; in [7] (5-HT2C), 247 nM; in assay [8] (5-HT6), 189 nM. The Ki in [9] is more than 10000 nM; in assay [10] (σ2) it was 1810 nM; in assay [11], 1460 nM; in assay [12], 413 nM; in assay [13], 1910 nM; in assay [14] it was more than 10000 nM. For the same compound, the Ki in assay [15] is more than 10000 nM; in assay [16] it was more than 10000 nM; in assay [17], 5860 nM; in assay [18], more than 10000 nM. The “number of lever presses (meth seeking behavior)” value in assay [2] is “significantly reduced”. Besides, the “increase in motor activity elicited by MDMA” value is “partially” in assay [5] (10 mg/kg i.p. 30 min before MDMA 10 mg/kg) and “completely blocked” in [5] (20 mg/kg i.p. 30 min before MDMA 10 mg/kg). Moreover, the “binding, in words” value in assay [7] (HT2c, summary of Table 1) is given as “moderate binding”; in [8] (5-HT6, text summary of Table 1), “moderate binding”; in assay [10] (σ2, text summary of Table 1), “moderate binding”.
